According to PubChem BioAssay (NCI):
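Method: 48-hour compound exposure of cells in 96-well plates, five concentrations, linear interpolation of endpoints. GI50 is the concentration that inhibits growth by half. TGI denotes the concentration required for complete inhibition of growth.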

Legend:
Assay in all cases: DTP human tumour cell line panel, 48 h
[1] = system: SF-539 CNS
[2] = system: SR leukemia
[3] = system: OVCAR-4 ovarian
[4] = system: OVCAR-8 ovarian
[5] = system: OVCAR-3 ovarian
[6] = system: HCC-2998 colon
[7] = system: 786-0 renal
[8] = system: COLO 205 colon
[9] = system: A549 NSCLC
[10] = system: K-562 leukemia
[11] = system: IGROV1 ovarian
[12] = system: RPMI-8226 leukemia
[13] = system: MDA-MB-435
[14] = system: ACHN renal
[15] = system: HOP-92 NSCLC
[16] = system: MCF7 breast
[17] = system: CCRF-CEM leukemia
[18] = system: BT-549 breast
[19] = system: SF-268 CNS
[20] = system: HL-60(TB) leukemia
[21] = system: UACC-257 melanoma
[22] = system: TK-10 renal
[23] = system: SNB-19 CNS
[24] = system: HT29 colon
[25] = system: HCT-15 colon
[26] = system: NCI-H23 lung
[27] = system: MDA-MB-231 breast
[28] = system: KM12 colon
[29] = system: T-47D breast
[30] = system: SW-620 colon
[31] = system: SK-MEL-28 melanoma
[32] = system: SF-295 CNS
[33] = system: M14 melanoma
[34] = system: NCI/ADR-RES ovarian
[35] = system: HOP-62 NSCLC
[36] = system: RXF 393 renal
[37] = system: PC-3 prostate
[38] = system: MOLT-4 leukemia
[39] = system: NCI-H460 lung
[40] = system: CAKI-1 renal
[41] = system: MALME-3M melanoma
[42] = system: UO-31 renal
[43] = system: SN12C renal
[44] = system: NCI-H226 lung
[45] = system: OVCAR-5 ovarian
[46] = system: A498 renal
[47] = system: U251 CNS
[48] = system: EKVX NSCLC
[49] = system: UACC-62 melanoma
[50] = system: SNB-75 CNS
[51] = system: HCT-116 colon
[52] = system: LOX IMVI melanoma
[53] = system: SK-OV-3 ovarian
[54] = system: DU-145 prostate
[55] = system: SK-MEL-5 melanoma
[56] = system: SK-MEL-2 melanoma
[57] = system: HS 578T breast
[58] = system: NCI-H522 lung

With `CCCCNC(=S)/N=C/c1c(O)c2ccccc2[nH]c1=O` the TGI [1] was > 10 µM, the TGI [2] was > 10 µM and the TGI [3] was > 10 µM. The TGI [4] was > 10 µM, the TGI [5] was > 10 µM and the TGI [6] was > 10 µM. For the same compound, the TGI [7] was > 10 µM, the TGI [8] was > 10 µM and the TGI [9] was > 10 µM. For the same compound, the TGI [10] was > 10 µM, the TGI [11] was > 10 µM and the TGI [12] was > 10 µM. The TGI [13] was > 10 µM, the TGI [14] was > 10 µM and the TGI [15] was > 10 µM. For the same compound, the TGI [16] was > 10 µM, the TGI [17] was > 10 µM and the TGI [18] was > 10 µM. For the same compound, the TGI [19] was > 10 µM, the TGI [20] was > 10 µM and the TGI [21] was > 10 µM. For the same compound, the TGI [22] was > 10 µM, the TGI [23] was > 10 µM and the TGI [24] was > 10 µM. The TGI [25] was > 10 µM, the TGI [26] was > 10 µM and the TGI [27] was > 10 µM. The TGI [28] was > 10 µM, the TGI [29] was > 10 µM and the TGI [30] was > 10 µM. The TGI [31] was > 10 µM, the TGI [32] was > 10 µM and the TGI [33] was > 10 µM. For the same compound, the TGI [34] was > 10 µM, the TGI [35] was > 10 µM and the TGI [36] was > 10 µM. For the same compound, the TGI [37] was > 10 µM, the TGI [38] was > 10 µM and the TGI [39] was > 10 µM. For the same compound, the TGI [40] was > 10 µM, the TGI [41] was > 10 µM and the TGI [42] was > 10 µM. For the same compound, the TGI [43] was > 10 µM, the TGI [44] was > 10 µM and the TGI [45] was > 10 µM. The TGI [46] was > 10 µM, the TGI [47] was > 10 µM and the TGI [48] was > 10 µM. For the same compound, the TGI [49] was > 10 µM.
Compound `CC(C)(C)c1cc(C#N)cc(Br)c1OP(=O)(Oc1c(Br)cc(C#N)cc1C(C)(C)C)c1ccccc1` has a GI50 [2] of 10.5 µM.
In the case of `O=C1NC2(CCN(CCCC3(c4ccc(F)cc4)OCCO3)CC2)Oc2ccccc21`, the TGI [1] is reported as > 100 µM, the TGI [2] is reported as > 100 µM and the TGI [3] is reported as > 100 µM. For the same compound, the TGI [4] was > 100 µM, the TGI [6] was > 100 µM and the TGI [50] was > 100 µM. For the same compound, the TGI [7] was > 100 µM, the TGI [51] was > 100 µM and the TGI [8] was > 100 µM. For the same compound, the TGI [9] was > 100 µM, the TGI [10] was > 100 µM and the TGI [11] was > 100 µM. The TGI [12] was > 100 µM, the TGI [52] was > 100 µM and the TGI [13] was > 100 µM. The TGI [14] was > 100 µM, the TGI [15] was > 100 µM and the TGI [16] was > 100 µM. The TGI [17] was > 100 µM, the TGI [19] was > 100 µM and the TGI [20] was > 100 µM. The TGI [21] was > 100 µM, the TGI [22] was > 100 µM and the TGI [23] was > 100 µM. The TGI [24] was > 100 µM, the TGI [25] was > 100 µM and the TGI [26] was > 100 µM. The TGI [27] was > 100 µM, the TGI [53] was > 100 µM and the TGI [28] was > 100 µM. For the same compound, the TGI [29] was > 100 µM, the TGI [30] was > 100 µM and the TGI [31] was > 100 µM. The TGI [54] was > 100 µM, the TGI [32] was > 100 µM and the TGI [33] was > 100 µM. For the same compound, the TGI [34] was > 100 µM, the TGI [35] was > 100 µM and the TGI [36] was > 100 µM. The TGI [38] was > 100 µM, the TGI [39] was > 100 µM and the TGI [41] was > 100 µM. For the same compound, the TGI [42] was > 100 µM, the TGI [43] was > 100 µM and the TGI [55] was > 100 µM. For the same compound, the TGI [44] was > 100 µM, the TGI [45] was > 100 µM and the TGI [46] was 80.5 µM. For the same compound, the TGI [47] was > 100 µM, the TGI [48] was > 100 µM and the TGI [49] was > 100 µM.
For `Cc1cc(OCc2nnc3n2N=C(c2ccc(Cl)cc2Cl)CS3)ccc1Cl`, the GI50 [1] was > 100 µM, the TGI [1] was > 100 µM and the GI50 [2] was 43.3 µM. For the same compound, the TGI [2] was > 100 µM, the GI50 [3] was 59.6 µM and the TGI [3] was > 100 µM. For the same compound, the GI50 [4] was 45 µM, the TGI [4] was > 100 µM and the GI50 [5] was 35.9 µM. For the same compound, the TGI [5] was > 100 µM, the GI50 [6] was 68.6 µM and the TGI [6] was > 100 µM. For the same compound, the GI50 [7] was > 100 µM, the TGI [7] was > 100 µM and the GI50 [56] was 76.2 µM. The TGI [56] was > 100 µM, the GI50 [51] was 53 µM and the TGI [51] was > 100 µM. For the same compound, the GI50 [8] was 60.2 µM, the TGI [8] was > 100 µM and the GI50 [9] was 56.3 µM. For the same compound, the TGI [9] was > 100 µM, the GI50 [10] was 54.7 µM and the TGI [10] was > 100 µM. The GI50 [11] was 52.3 µM, the TGI [11] was > 100 µM and the GI50 [12] was 40.6 µM. For the same compound, the TGI [12] was > 100 µM, the GI50 [52] was 36.3 µM and the TGI [52] was > 100 µM. For the same compound, the GI50 [13] was 26.5 µM, the TGI [13] was > 100 µM and the GI50 [14] was 45.4 µM. The TGI [14] was > 100 µM, the GI50 [15] was > 100 µM and the TGI [15] was > 100 µM. The GI50 [16] was 39.1 µM, the TGI [16] was > 100 µM and the GI50 [17] was 42.2 µM. The TGI [17] was > 100 µM, the GI50 [18] was 25.9 µM and the TGI [18] was > 100 µM. The GI50 [19] was 73.4 µM, the TGI [19] was > 100 µM and the GI50 [20] was 45.9 µM. For the same compound, the TGI [20] was > 100 µM, the GI50 [21] was 42.1 µM and the TGI [21] was 93.2 µM. For the same compound, the GI50 [22] was 32 µM, the TGI [22] was > 100 µM and the GI50 [23] was 97.2 µM. For the same compound, the TGI [23] was > 100 µM, the GI50 [24] was 59.8 µM and the TGI [24] was > 100 µM. For the same compound, the GI50 [25] was 39.4 µM, the TGI [25] was > 100 µM and the GI50 [26] was 61 µM. The TGI [26] was > 100 µM, the GI50 [27] was 30.8 µM and the TGI [27] was 90.4 µM. For the same compound, the GI50 [53] was > 100 µM, the TGI [53] was > 100 µM and the GI50 [28] was 53.3 µM. The TGI [28] was > 100 µM, the GI50 [29] was 40.5 µM and the TGI [29] was > 100 µM. For the same compound, the GI50 [30] was > 100 µM, the TGI [30] was > 100 µM and the GI50 [31] was 79.3 µM. The TGI [31] was > 100 µM, the GI50 [54] was 69.7 µM and the TGI [54] was > 100 µM. For the same compound, the GI50 [32] was 28.4 µM, the TGI [32] was > 100 µM and the GI50 [33] was 43.4 µM. The TGI [33] was > 100 µM, the GI50 [34] was 51.8 µM and the TGI [34] was > 100 µM. For the same compound, the GI50 [35] was > 100 µM, the TGI [35] was > 100 µM and the GI50 [36] was 52.2 µM. The TGI [36] was > 100 µM, the GI50 [37] was 51.3 µM and the TGI [37] was > 100 µM. For the same compound, the GI50 [38] was 47.7 µM, the TGI [38] was > 100 µM and the GI50 [57] was 37.9 µM. The TGI [57] was > 100 µM, the GI50 [39] was 62.8 µM and the TGI [39] was > 100 µM. The GI50 [40] was 44.2 µM, the TGI [40] was > 100 µM and the GI50 [41] was 68.9 µM. For the same compound, the TGI [41] was > 100 µM, the GI50 [42] was 34 µM and the TGI [42] was > 100 µM. The GI50 [43] was 38.7 µM, the TGI [43] was > 100 µM and the GI50 [55] was 25.6 µM. The TGI [55] was > 100 µM, the GI50 [44] was 43.6 µM and the TGI [44] was > 100 µM. The GI50 [58] was 22.6 µM, the TGI [58] was 65 µM and the GI50 [45] was > 100 µM. The TGI [45] was > 100 µM, the GI50 [47] was 71.3 µM and the TGI [47] was > 100 µM. The GI50 [48] was 6.89 µM, the TGI [48] was 81.2 µM and the GI50 [49] was 34.4 µM. The TGI [49] was > 100 µM.
